Experimental data reported in patent publication US8431563B2 (priority 2010, dated 2013).
Read-outs that look alike come from different tables or passages of the source.

What was measured:
[1] = molecular target: T1, interaction between glucokinase (GK) and glucokinase regulatory protein (GKRP) (Homo sapiens, UniProt Q14397); test: biochemical; format: binding
T1 sequence (Q14397 1-625): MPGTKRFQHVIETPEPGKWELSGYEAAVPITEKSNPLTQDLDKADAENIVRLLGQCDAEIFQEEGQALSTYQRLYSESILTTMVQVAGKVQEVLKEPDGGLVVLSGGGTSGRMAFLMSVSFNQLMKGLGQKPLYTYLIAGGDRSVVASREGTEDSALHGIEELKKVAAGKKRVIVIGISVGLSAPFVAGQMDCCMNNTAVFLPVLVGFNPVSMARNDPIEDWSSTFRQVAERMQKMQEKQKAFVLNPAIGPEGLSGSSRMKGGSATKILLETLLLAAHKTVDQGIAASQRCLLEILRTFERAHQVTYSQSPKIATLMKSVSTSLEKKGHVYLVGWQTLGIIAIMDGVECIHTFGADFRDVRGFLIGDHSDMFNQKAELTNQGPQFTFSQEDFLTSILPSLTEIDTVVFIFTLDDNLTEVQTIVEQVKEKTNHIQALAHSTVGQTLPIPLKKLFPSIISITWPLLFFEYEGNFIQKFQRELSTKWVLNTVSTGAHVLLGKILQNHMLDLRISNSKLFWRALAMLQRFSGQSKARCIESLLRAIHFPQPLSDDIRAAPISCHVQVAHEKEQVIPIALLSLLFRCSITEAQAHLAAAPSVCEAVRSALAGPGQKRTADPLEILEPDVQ
Procedure: GK-GKRP Binding Assay Protocol
This assay is used to directly measure the interaction between glucokinase (GK) and glucokinase regulatory protein (GKRP). Begin by preparing the following solutions. Assay Buffer: 20 mM Tris, pH 7.5/0.05% BSA/1 mM DTT/1 μM sorbitol-6-phosphate. […] Combine the following reagents in a white 96-well half area plate. Pipette 14 μl of the diluted avi-tagged GKRP into each well. Add 1 μl of compound to be tested and incubate at room temperature for 20 minutes. After 20 minutes, add 5 μl of assay buffer containing 6 nM GK-fluorescein. […] Incubate in a dark room for 2 hours at room temperature. After 2 hours read the plate using an Envision plate reader (Perkin Elmer, Waltham Mass.).

[2] = molecular target: T2, GKRP (Glucokinase Regulatory Protein) with human His-hepatic GK (Homo sapiens, UniProt Q14397); test: biochemical
T2 sequence (Q14397 1-625): T1 sequence (Q14397 1-625)
Procedure: GKRP LC MS/MS-2 Biochemical Assay
This assay is used to directly measure the formation of ^13C-glucose-6-phosphate from ^13C-glucose by LC MS/MS. Begin by preparing the following solutions: Compound Buffer (CB): 50 mM Tris, pH 7.5/4 mM MgCl2/6% DMSO/fresh 10 mM DTT from 1M frozen stock. Enzyme Buffer (EB): 50 mM Tris, pH 7.5/4 mM MgCl2/6% DMSO/fresh 0.1% BSA/fresh 0.01% Brij-35 (10% BSA and 1% Brij-35 stock). GK (Glucokinase) Working Stock (5×): Dilute human His-hepatic GK to 30 nM in EB buffer. […] After 30 minutes add 10 μl of GK Working Stock (5×). Re-seal the plate and incubate for another 30 minutes at room temperature while mixing. After the second 30 minutes, stop the reaction by the addition of 50 μl of 100% acetonitrile, seal, and mix for 5-10 minutes. Run 10 μl of this sample through the LC MS/MS (API 3200, Applied Biosystems, Carlsbad, Calif.).

[3] = avi-tagged GKRP, GK-fluorescein, AlphaScreen beads, read-out: GK-GKRP IC50 (Binding)
[4] = 13C-glucose-6-phosphate formation, 280 nM GKRP (10×), 30 nM GK (5×), read-out: GK-GKRP EC50 (LC MS/MS-2)

CC(O)(c1ccc(N2CCN(S(=O)(=O)c3cccs3)C[C@@H]2CSc2ccccc2)cc1)C(F)(F)F (mixture of isomers) [Example 186, 1,1,1-trifluoro-2-(4-((2R)-2-((phenylsulfanyl)methyl)-4-(2-thiophenylsulfonyl)-1-piperazinyl)phenyl)-2-propanol]
IC50 ([1]; read-out: GK-GKRP IC50 (Binding)): 14 nM | EC50 ([2]; read-out: GK-GKRP EC50 (LC MS/MS-2)): 24 nM

CC(O)(c1ccc(N2CCN(S(=O)(=O)c3cccs3)C[C@@H]2CN2[C@@H]3COC[C@H]2CC(O)C3)cc1)C(F)(F)F (stereo partly drawn) [Example 107, 9-(((2S)-4-(2-thiophenylsulfonyl)-1-(4-(2,2,2-trifluoro-1-hydroxy-1-methylethyl)phenyl)-2-piperazinyl)methyl)-3-oxa-9-azabicyclo[3.3.1]nonan-7-ol (endo)]
IC50 [1, 3]: 5 nM | EC50 [2, 4]: 16 nM

CC(O)(c1ccc(N2CCN(S(=O)(=O)c3cccs3)C[C@@H]2CN2CCOC[C@H]2CO)cc1)C(F)(F)F (single isomer, unassigned) [Example 110 Peak #1]
IC50 ([1]; GK-GKRP IC50 (Binding)): 101 nM | EC50 ([2]; GK-GKRP EC50 (LC MS/MS-2)): 156 nM

CC(O)(c1ccc(N2CCN(S(=O)(=O)c3cccs3)C[C@@H]2CN2C3COCC2C(O)C3)cc1)C(F)(F)F (stereo partly drawn) [Example 77, 8-(((2S)-4-(2-thiophenylsulfonyl)-1-(4-(2,2,2-trifluoro-1-hydroxy-1-methylethyl)phenyl)-2-piperazinyl)methyl)-3-oxa-8-azabicyclo[3.2.1]octan-6-ol (endo)]
IC50 [1, 3]: 28 nM | EC50 [2, 4]: 31 nM

CC(O)(c1ccc(N2CCN(S(=O)(=O)c3cccs3)C[C@@H]2CNc2ccccc2)cc1)C(F)(F)F (mixture of isomers) [Example 203, 1,1,1-trifluoro-2-(4-((2S)-2-((phenylamino)methyl)-4-(2-thiophenylsulfonyl)-1-piperazinyl)phenyl)-2-propanol]
IC50 ([1]; GK-GKRP IC50 (Binding)): 278 nM | EC50 ([2]; GK-GKRP EC50 (LC MS/MS-2)): 146 nM

CC(O)(c1ccc(N2CCN(S(=O)(=O)c3cccs3)C[C@@H]2CN2C3CCCC2CC(=O)C3)cc1)C(F)(F)F (mixture of isomers) [Example 140, 9-(((2S)-4-(2-thiophenylsulfonyl)-1-(4-(2,2,2-trifluoro-1-hydroxy-1-methylethyl)phenyl)-2-piperazinyl)methyl)-9-azabicyclo[3.3.1]nonan-3-one]
IC50 ([1]; GK-GKRP IC50 (Binding), avi-tagged GKRP, GK-fluorescein, AlphaScreen beads): 7 nM | EC50 ([2]; GK-GKRP EC50 (LC MS/MS-2), 13C-glucose-6-phosphate formation, 280 nM GKRP (10×), 30 nM GK (5×)): 15 nM

CC(C)C1C(=O)NCCN1C[C@H]1CN(S(=O)(=O)c2cccs2)CCN1c1ccc(C(C)(O)C(F)(F)F)cc1 (single isomer, unassigned) [Example 181 Peak #1]
IC50 [1, 3]: 43 nM | EC50 [2, 4]: 63 nM

CC(C)N(C[C@H]1CN(S(=O)(=O)c2cccs2)CCN1c1ccc(C(C)(O)C(F)(F)F)cc1)S(=O)(=O)c1cccnc1 (mixture of isomers) [Example 198, N-(1-methylethyl)-N-(((2R)-4-(2-thiophenylsulfonyl)-1-(4-(2,2,2-trifluoro-1-hydroxy-1-methylethyl)phenyl)-2-piperazinyl)methyl)-3-pyridinesulfonamide]
IC50 [1, 3]: 108 nM | EC50 [2, 4]: 177 nM

CC(O)(c1ccc(N2CCN(S(=O)(=O)c3cccs3)C[C@@H]2CN(CC2CC2)S(C)(=O)=O)cc1)C(F)(F)F (mixture of isomers) [Example 202, N-(cyclopropylmethyl)-N-(((2S)-4-(2-thiophenylsulfonyl)-1-(4-(2,2,2-trifluoro-1-hydroxy-1-methylethyl)phenyl)-2-piperazinyl)methyl)methanesulfonamide]
IC50 [1, 3]: 26 nM | EC50 [2, 4]: 39 nM

C[C@H]1COCCN1C[C@H]1CN(S(=O)(=O)c2ccc(N)nc2)CCN1c1ccc(C(C)(O)C(F)(F)F)cc1 (single isomer, unassigned) [Example 125 Peak #2]
IC50 [1, 3]: 7 nM | EC50 [2, 4]: 18 nM

O=S(=O)(c1cccs1)N1CCN(c2ccc(C(O)(C(F)(F)F)C(F)(F)F)cc2C#CCO)CC1 [Example 152, 3-(2-(4-(2-thiophenylsulfonyl)-1-piperazinyl)-5-(2,2,2-trifluoro-1-hydroxy-1-(trifluoromethyl)ethyl)phenyl)-2-propyn-1-ol]
IC50 [1, 3]: 712 nM | EC50 [2, 4]: 557 nM
